Reference: patent US20250041574A1 (TARIS Biomedical LLC, priority 2022, published 2025)
Where two headings read alike, the source gives them in different places.

Experiments:
[1] = not given; remark: listed apart in the source
[2] = dynamic vapor sorption
[3] = In vitro protein binding in human urine; assay type: in vitro ADME
Method: (§1) Albuminuria/proteinuria had minimal effect on % free form in urine.
(§2) At the end of 6-hours post-dialysis incubation, drug was analyzed, and the recovery was calculated against the spiked concentrations.

[4] = urine
Description: On Day −7 a catheter was surgically placed in the bladder of each animal. The distal end of the catheter was anchored to a subcutaneous site and attached to a vascular access port (VAP). The port was secured, and the animals were allowed to recover. Each animal was subsequently fitted with a portable infusion pump that was attached to the bladder catheter via the VAP. […] All excreted urine was collected in 24-hour intervals through Day 6 or 8. Blood samples were collected daily on study Days 1 to 8. Bladder tissue samples were collected from each animal at necropsy.

Stability in rat urine = assay type: in vitro ADME; details: freshly collected rat urine, 37° C., 6 hours
Method: as §2

[5] = rat, in vivo
Description: Rat bladders (5 groups of rats, n=3/group) were surgically catheterized under anesthesia and the catheter was externalized, tunneled subcutaneously, and connected to a vascular access harness (VAH) in the neck. Rats were transferred to individual metabolic cages with free access to food and water during the 1-week post-surgery recovery period. […] Plasma and bladder samples were collected at all time points.

[6] = Stability in minipig urine; assay type: in vitro ADME; details: freshly collected minipig urine, 37° C., 6 hours
Method: as §2

[7] = system: UM-UC-1 orthotopic bladder tumors; assay: Continuous bladder perfusion in athymic rats with orthotopic UM-UC-1 bladder tumors
Method: Perfusion studies: The bladders of the study animals were cannulated on Day 1 and the animals were allowed to recover for 3 days. On Day 5, UM-UC-1 cells (2×10^6 cells) were injected into the lateral wall of each bladder. […] Based on the in vitro results, target urine concentrations of 0.5, 1.0, and 5.0 μg/mL were used in the perfusion experiments. Body weight, daily urine production, and daily water consumption were recorded. At necropsy, a plasma sample, bladder photographs, and bladder weight measurements were recorded.
The percent reduction in relative tumor weight between the control group and the drug perfusion groups was determined as an initial measure of efficacy. Bladder tissue and tumor samples were also submitted for analysis of FGFR signaling activity by determining the phosphorylated fibroblast growth factor receptor substrate (FRS)2a levels and the pERK to ERK ratio.

[8] = system: RT-112 orthotopic bladder tumor; assay: Continuous bladder perfusion in athymic rats with orthotopic RT-112 bladder tumors
Stability in human urine = assay type: in vitro ADME; details: freshly collected human urine, 37° C., 6 hours
Method: as §2

[9] = In vitro protein binding in minipig urine; assay type: in vitro ADME
Method: as §1, §2

[10] = In vitro protein binding in rat urine; assay type: in vitro ADME
Method: as §1, §2

Structure (SMILES): COc1cc(OC)cc(N(CCNC(C)C)c2ccc3ncc(-c4cnn(C)c4)nc3c2)c1.C[C@H](O)C(=O)O [Erdafitinib L-lactate salt]
- In Vitro Permeation (EVA (CoTran 9712)): ◯
- In Vitro Permeation (TPU (EG-80A)): Δ
- In Vitro Permeation (TPU (HP-60D-35)): ◯
- In Vitro Permeation (TPU (HP-93A-100)): ◯
- solubility ([1]; as function of pH in water and simulated urine at 37° C.): very high solubility over a broad pH range
- DVS [2]: Non-hygroscopic

Structure (SMILES): COc1cc(OC)cc(N(CCNC(C)C)c2ccc3ncc(-c4cnn(C)c4)nc3c2)c1 [erdafitinib, N-(3,5-dimethoxyphenyl)-N′-(1-methylethyl)-N-[3-(1-methyl-1H-pyrazol-4-yl)quinoxalin-6-yl]ethane-1,2-diamine]
- Percent erdafitinib free in urine [3]: 95%
- Daily erdafitinib recoveries, of the average daily amount administered [4]: 15.7%
- stability in urine (Stability in rat urine): sufficiently stable
- AUC0-120h ([5]; female, Sprague-Dawley, 0.72 mg): 127,000 ng · h/mL
- C96h [5]: BQL
- C120h [5]: BQL
- stability in urine [6]: sufficiently stable
- bladder weight vs vehicle control ([7]; 0.5 (p<0.01), 1.0 and 5 μg/mL (p<0.001) nominal urine concentrations, 5 days perfusion): significant dose-related decrease
- percentage change in body weight vs vehicle control ([7]; 0.5, 1.0 and 5.0 μg/mL treatment groups): Statistically non-significant difference
- cage side observations ([7]; 5 days continuous perfusion, 0.5, 1.0, 5.0 μg/mL, any treatment group): no visible signs of abnormal behavior or clinical symptoms
- bladder weight vs vehicle control ([8]; 1.0 μg/mL perfusate concentration, p<0.05): significant bladder weight reduction
- bladder weight decrease vs vehicle control ([8]; 0.25 and 0.5 μg/mL dose groups): not statistically significant
- percentage change in body weight vs vehicle control ([8]; 0.5, 1.0 and 5.0 μg/mL treatment groups (so in the source), except Group 4 on Day 11 (p<0.05)): Statistically non-significant difference
- body weight loss, maximum mean values ([8]; erdafitinib-treated group, Day 11): up to −3%
- In Vitro Permeation (EVA (CoTran 9712)): Δ
- In Vitro Permeation (TPU (EG-80A)): Δ
- In Vitro Permeation (TPU (HP-60D-35)): ◯
- In Vitro Permeation (TPU (HP-93A-100)): ◯
- stability in urine (Stability in human urine): sufficiently stable
- solubility ([1]; normal urine pH range of 5.5 to 7): significant pH-dependent solubility
- Percent erdafitinib free in urine [9]: 97%
- Percent erdafitinib free in urine [10]: 84%
- DVS [2]: Non-hygroscopic
